Assay results: ChEMBL document CHEMBL1240454, “1,3-Dioxolane-based ligands incorporating a lactam or imide moiety: structure-affinity/activity relationship at alpha1-adrenoceptor subtypes and at 5-HT1A receptors” (Eur J Med Chem, 2010)

Legend:
[1] = species: Rattus norvegicus; assay: Selectivity for adrenergic Alpha-1B receptor in Wistar rat spleen over adrenergic alpha1A receptor in Wistar rat prostatic vas deferens; type: tissue-based
[2] = biological target: T1, Alpha-1B adrenergic receptor (Rattus norvegicus) (UniProt P15823); assay: Antagonist activity at adrenergic Alpha-1B receptor in Wistar rat spleen assessed as inhibition of […]-induced tissue contraction treated 30 mins before […] challenge; type: functional, tissue-based
T1 sequence (whole entry): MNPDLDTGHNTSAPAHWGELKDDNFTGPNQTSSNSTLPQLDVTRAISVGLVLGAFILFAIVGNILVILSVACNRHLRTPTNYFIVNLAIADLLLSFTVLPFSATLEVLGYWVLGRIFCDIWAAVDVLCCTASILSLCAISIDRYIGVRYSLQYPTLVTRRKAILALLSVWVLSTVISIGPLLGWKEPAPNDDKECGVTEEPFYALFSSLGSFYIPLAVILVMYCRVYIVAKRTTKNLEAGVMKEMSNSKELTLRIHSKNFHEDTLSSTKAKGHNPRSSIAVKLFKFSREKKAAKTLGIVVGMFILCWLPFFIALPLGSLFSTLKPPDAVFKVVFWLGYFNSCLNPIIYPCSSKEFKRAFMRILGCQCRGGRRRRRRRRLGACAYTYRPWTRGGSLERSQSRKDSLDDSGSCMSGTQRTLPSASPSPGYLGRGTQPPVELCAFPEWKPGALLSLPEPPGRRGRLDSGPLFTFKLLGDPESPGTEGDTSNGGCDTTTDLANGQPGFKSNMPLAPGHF

[3] = biological target: T2, Alpha-1D adrenergic receptor (Homo sapiens, UniProt P25100)
T2 sequence (P25100 whole entry): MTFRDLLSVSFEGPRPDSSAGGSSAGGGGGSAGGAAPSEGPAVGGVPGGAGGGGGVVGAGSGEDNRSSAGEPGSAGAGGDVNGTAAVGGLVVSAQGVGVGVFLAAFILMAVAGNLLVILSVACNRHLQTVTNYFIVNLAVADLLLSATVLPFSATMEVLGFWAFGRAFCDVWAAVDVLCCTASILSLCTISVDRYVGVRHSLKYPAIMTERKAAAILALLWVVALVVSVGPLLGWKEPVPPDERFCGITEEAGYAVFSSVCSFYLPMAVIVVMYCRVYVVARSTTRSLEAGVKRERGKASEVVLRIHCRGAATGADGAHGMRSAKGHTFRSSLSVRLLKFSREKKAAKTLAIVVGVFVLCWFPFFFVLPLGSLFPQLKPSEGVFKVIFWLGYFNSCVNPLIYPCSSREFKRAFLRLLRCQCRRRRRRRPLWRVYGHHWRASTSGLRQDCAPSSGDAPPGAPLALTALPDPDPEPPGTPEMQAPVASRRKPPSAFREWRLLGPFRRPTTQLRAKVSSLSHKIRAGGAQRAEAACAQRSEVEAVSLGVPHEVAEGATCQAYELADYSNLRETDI
Description: Displacement [3H]prazosin of human recombinant Alpha-1D adrenergic receptor expressed in CHO cells by rapid filtration technique

[4] = species: Rattus norvegicus; assay: Selectivity for adrenergic Alpha-1B receptor in Wistar rat spleen over adrenergic alpha1D receptor in Wistar rat thoracic aorta; type: tissue-based
[5] = biological target: T3, Alpha-1A adrenergic receptor (Homo sapiens, UniProt P35348)
T3 sequence (P35348 whole entry): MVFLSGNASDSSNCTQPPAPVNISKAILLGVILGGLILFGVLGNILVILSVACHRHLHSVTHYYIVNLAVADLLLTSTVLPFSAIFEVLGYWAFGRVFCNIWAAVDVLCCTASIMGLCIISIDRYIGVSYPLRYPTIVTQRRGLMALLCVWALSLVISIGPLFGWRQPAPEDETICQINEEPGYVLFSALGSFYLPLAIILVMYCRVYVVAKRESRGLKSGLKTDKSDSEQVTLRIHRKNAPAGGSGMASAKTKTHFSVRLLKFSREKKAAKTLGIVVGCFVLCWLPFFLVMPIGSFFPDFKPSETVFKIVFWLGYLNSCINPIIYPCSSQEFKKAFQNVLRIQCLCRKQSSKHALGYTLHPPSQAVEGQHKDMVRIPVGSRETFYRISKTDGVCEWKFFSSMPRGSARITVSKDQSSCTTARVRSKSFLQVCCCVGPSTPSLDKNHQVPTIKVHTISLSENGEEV
Description: Displacement [3H]prazosin of human recombinant alpha1A adrenergic receptor expressed in CHO cells by rapid filtration technique

[6] = biological target: T4, Alpha-1A adrenergic receptor (Rattus norvegicus) (UniProt P43140); assay: Antagonist activity at adrenergic alpha1A receptor in Wistar rat prostatic vas deferens assessed as inhibition of (-)-noradrenaline-induced tissue contraction treated 30 mins before (-)noradrenalin challenge; type: functional, tissue-based
T4 sequence (whole entry): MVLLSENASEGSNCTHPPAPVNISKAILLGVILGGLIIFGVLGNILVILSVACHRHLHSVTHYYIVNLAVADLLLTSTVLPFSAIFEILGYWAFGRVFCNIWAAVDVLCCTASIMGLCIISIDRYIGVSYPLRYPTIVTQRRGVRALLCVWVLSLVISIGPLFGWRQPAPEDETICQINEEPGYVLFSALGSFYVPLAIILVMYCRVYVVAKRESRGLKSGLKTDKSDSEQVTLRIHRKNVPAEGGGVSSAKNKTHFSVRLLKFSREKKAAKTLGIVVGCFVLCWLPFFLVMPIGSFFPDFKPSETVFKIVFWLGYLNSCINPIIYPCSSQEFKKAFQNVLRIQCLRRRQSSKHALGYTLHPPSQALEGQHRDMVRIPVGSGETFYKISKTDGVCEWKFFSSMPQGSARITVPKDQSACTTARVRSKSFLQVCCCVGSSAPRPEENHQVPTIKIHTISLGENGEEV

[7] = biological target: T5, Alpha-1B adrenergic receptor (Homo sapiens, UniProt P35368)
T5 sequence (P35368 whole entry): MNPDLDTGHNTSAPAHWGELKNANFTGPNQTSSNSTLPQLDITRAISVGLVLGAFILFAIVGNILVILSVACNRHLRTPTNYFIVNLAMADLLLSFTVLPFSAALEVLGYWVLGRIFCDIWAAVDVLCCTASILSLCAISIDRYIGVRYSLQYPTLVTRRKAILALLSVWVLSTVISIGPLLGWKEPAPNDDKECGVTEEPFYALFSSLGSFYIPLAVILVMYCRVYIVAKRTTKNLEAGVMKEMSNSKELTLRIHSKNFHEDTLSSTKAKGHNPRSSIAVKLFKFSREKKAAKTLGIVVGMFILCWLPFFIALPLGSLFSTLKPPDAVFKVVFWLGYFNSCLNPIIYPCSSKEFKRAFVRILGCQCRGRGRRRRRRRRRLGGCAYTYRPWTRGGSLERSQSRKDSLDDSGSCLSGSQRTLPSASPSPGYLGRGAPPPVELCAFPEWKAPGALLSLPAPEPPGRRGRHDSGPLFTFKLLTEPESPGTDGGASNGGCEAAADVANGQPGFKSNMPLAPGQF
Description: Displacement [3H]prazosin of human recombinant Alpha-1B adrenergic receptor expressed in CHO cells by rapid filtration technique

[8] = species: Rattus norvegicus; assay: Selectivity for adrenergic alpha1A receptor in Wistar rat prostatic vas deferens over adrenergic Alpha-1D receptor in Wistar rat thoracic aorta; type: tissue-based

Row | SMILES | Selectivity ratio [1] | pKb [2] | Ki [3] | Selectivity ratio [4] | Ki [5] | pKb [6] | Ki [7] | Selectivity ratio [8]
1 | COc1ccccc1N1CCN(C[C@@H]2CO[C@@](CN3C(=O)CC4(CCCC4)CC3=O)(c3ccccc3)O2)CC1 (relative stereo) | 0.7 | 7.47 | 1.38 nM | 11 | 10 nM | 7.29 | 10 nM | 17
2 | COc1ccccc1N1CCN(C[C@H]2CO[C@@](CN3CCCCC3=O)(c3ccccc3)O2)CC1 | 0.3 | 7.93 | 14.1 nM | 0.06 | 0.871 nM | 7.3 | 129 nM | 0.3
3 | COc1ccccc1N1CCN(C[C@H]2CO[C@](CN3CCCC3=O)(c3ccccc3)O2)CC1 (relative stereo) | 0.5 | 8.29 | 13.5 nM | 0.03 | 1.38 nM | 7.94 | 174 nM | 0.07
4 | COc1ccccc1N1CCN(C[C@@H]2CO[C@@](CN3C(=O)CCCC3=O)(c3ccccc3)O2)CC1 (relative stereo) | 1 | 7.35 | 8.51 nM | 2 | 21.4 nM | 7.36 | 132 nM | 2
5 | COc1ccccc1N1CCN(CC2OCC(c3ccccc3)(c3ccccc3)O2)CC1 (centres undefined) | 36 | 6.69 | 0.813 nM | 28 | 0.263 nM | 8.24 | 6.76 nM | 0.8
6 | COc1ccccc1N1CCN(C[C@@H]2CO[C@](CN3CCCC3=O)(c3ccccc3)O2)CC1 (relative stereo) | 0.2 | 8.17 | 5.25 nM | 0.1 | 12.6 nM | 7.34 | 70.8 nM | 1
7 | COc1ccccc1N1CCN(C[C@H]2CO[C@@](CN3C(=O)CCC3=O)(c3ccccc3)O2)CC1 (relative stereo) | 3 | 7.04 | 39.8 nM | 0.2 | 2.88 nM | 7.45 | 85.1 nM | 0.1
8 | COc1ccccc1N1CCN(C[C@@H]2CO[C@@](CN3C(=O)CCC3=O)(c3ccccc3)O2)CC1 (relative stereo) | 2 | 7.11 | 16.2 nM | 5 | 40.7 nM | 7.32 | 224 nM | 3
9 | COc1ccccc1N1CCN(C[C@@H]2CO[C@@](CN3CCCCC3=O)(c3ccccc3)O2)CC1 (relative stereo) | 0.1 | 8.3 | 1.48 nM | 0.1 | 11.5 nM | 7.32 | 51.3 nM | 1
10 | COc1ccccc1N1CCN(C[C@H]2CO[C@@](CN3C(=O)CC4(CCCC4)CC3=O)(c3ccccc3)O2)CC1 (relative stereo) | 3 | 7.4 | 4.79 nM | 0.2 | 2.04 nM | 7.72 | 9.33 nM | 0.1
11 | COc1ccccc1N1CCN(C[C@@H]2CO[C@@](CN3CCCCCC3=O)(c3ccccc3)O2)CC1 (relative stereo) | 0.1 | 8.08 | 2.51 nM | 0.5 | 26.9 nM | 7.18 | 18.2 nM | 4
12 | COc1ccccc1N1CCN(C[C@H]2CO[C@@](CN3CCCCCC3=O)(c3ccccc3)O2)CC1 (relative stereo) | 4 | 8.42 | 4.07 nM | 0.1 | 0.631 nM | 8.97 | 72.4 nM | 0.04
13 | COc1ccccc1N1CCN(C[C@H]2CO[C@@](CN3C(=O)CCCC3=O)(c3ccccc3)O2)CC1 (relative stereo) | 1 | 7.12 | 32.4 nM | 0.1 | 6.61 nM | 7.09 | 46.8 nM | 0.1
